Experimental data as given in publication PMC12928749 (ACS catalysis, 2025).

Legend:
[1] = target: T1, TyrH (heme-dependent tyrosine hydroxylase) (Streptomyces sclerotialus, UniProt Z9QGI7APK5); assay: steady-state kinetics; type: biochemical; conditions: co-substrate H2O2
T1 sequence (Z9QGI7APK5 1-314): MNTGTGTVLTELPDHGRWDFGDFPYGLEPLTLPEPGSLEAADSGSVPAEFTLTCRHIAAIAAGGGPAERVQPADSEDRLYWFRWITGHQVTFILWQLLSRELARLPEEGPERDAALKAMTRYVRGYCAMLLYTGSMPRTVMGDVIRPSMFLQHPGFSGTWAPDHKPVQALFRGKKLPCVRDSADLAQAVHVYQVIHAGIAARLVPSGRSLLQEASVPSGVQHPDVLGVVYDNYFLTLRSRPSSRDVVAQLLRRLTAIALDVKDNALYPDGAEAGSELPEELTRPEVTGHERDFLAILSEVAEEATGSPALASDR

[2] = target: T1, TyrH (heme-dependent tyrosine hydroxylase); assay: UV-vis titration; type: binding; conditions: 100 mM potassium phosphate, 50 mM NaCl, pH 7.4; ferric enzyme

O=C(O)CCc1ccc(O)cc1 [HPPA, 3-(4-hydroxyphenyl)propionic acid]
KM [1]: The KM values for both tyrosine and HPPA were comparable (Figure S8)

N[C@@H](Cc1ccc(O)cc1)C(=O)O [L-Tyr, L-tyrosine]
KM [1]: The KM values for both tyrosine and HPPA were comparable (Figure S8)

O=Nc1ccccc1 [NB, nitrosobenzene]
Kd [2]: 296 ± 8 µM
